Assay results reported in patent publication US8513270B2, “Substituted heterocycles as Janus kinase inhibitors” (Incyte Corporation, priority 2006, dated 2013).
Where two headings read alike, the source gives them in different places.

How the values were obtained:
[1] = tested on: JAK2_INA61 (cancer cell line dependent on cytokines and JAK/STAT signal transduction); assay: Cellular assay: viability of cytokine-dependent cancer cell line (CellTiter-Glo); format: cell-based; details: 72 hours, read-out: EXAMPLE B JAK2_INA61 IC50
Experimental: One or more compounds herein were tested for inhibitory activity of JAK targets according to at least one of the following cellular assays.
Compounds were added to the cells in DMSO/media (final concentration 0.2% DMSO) and incubated for 72 hours at 37° C., 5% CO2. The effect of compound on cell viability was assessed using the CellTiter-Glo Luminescent Cell Viability Assay (Promega) followed by TopCount (Perkin Elmer, Boston, Mass.) quantitation. Potential off-target effects of compounds were measured in parallel using a non-JAK driven cell line with the same assay readout. […] All experiments were performed in duplicate.

TF1-BCRABL1 cells = TF1-BCRABL1 cells (Homo sapiens, UniProt P00519); assay: ABL1 cell based assay: viability of ABL1-dependent cell line (CellTiter-Glo)
In short: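 ABL1-dependent cells plated at 3000 per well in RPMI 1640 with 10% FBS and exposed to compounds for 72 h at 37° C, 5% CO2, 0.2% DMSO final. Viability read by CellTiter-Glo luminescence; duplicate or more.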

[2] = molecular target: T1, human JAK1 (a.a. 837-1142) (Homo sapiens, UniProt P23458); assay: In vitro JAK kinase assay (HTRF), JAK1; format: biochemical; details: JAK1, 90 μM ATP; read-out: EXAMPLE A JAK2-JAK1 HTRF-2 IC50
T1 construct: human JAK1 (a.a. 837-1142); His tag (N); made in house; host or cells: insect cells (baculovirus)
T1 sequence (P23458 849-1154): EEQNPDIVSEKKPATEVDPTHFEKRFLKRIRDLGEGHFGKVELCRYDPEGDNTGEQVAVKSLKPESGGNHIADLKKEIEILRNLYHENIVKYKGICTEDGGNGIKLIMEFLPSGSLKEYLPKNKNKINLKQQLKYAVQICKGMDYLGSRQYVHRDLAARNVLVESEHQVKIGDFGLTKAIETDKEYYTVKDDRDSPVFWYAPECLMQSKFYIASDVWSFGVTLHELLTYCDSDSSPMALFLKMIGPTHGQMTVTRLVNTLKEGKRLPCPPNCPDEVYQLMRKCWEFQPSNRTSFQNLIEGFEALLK
In short: (§1)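 His-tagged catalytic domains from baculovirus-infected insect cells phosphorylated 500 nM biotinylated peptide in 50 mM Tris pH 7.8, 100 mM NaCl, 5 mM DTT, 0.01% BSA for 1 h at room temperature. ATP was 90 μM (JAK1), 30 μM (JAK2), 3 μM (JAK3). Detection used Eu-Py20/SA-APC; IC50s were derived.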

T315I ABL1 = molecular target: T2, T315I ABL1 (Homo sapiens, UniProt P00519, T315I); assay: T315I ABL1 HTRF assay; format: biochemical; details: 10 μM ATP; read-out: EXAMPLE G T315I Abl IC50
T2 construct: The catalytic domains of ABL1 kinases (residues 27 to the C-termini) were N-terminal His tagged; His tag (N); purchased Upstate Cell Signaling Solutions; host or cells: insect cells (baculovirus)
Experimental: (§2) Compounds herein described were tested for inhibitory activity of ABL1 kinase (wild-type and T315I mutant) as described below. The catalytic domains of ABL1 kinases (residues 27 to the C-termini) were N-terminal His tagged and expressed by baculovirus in insect cells and purified. These were purchased in purified form from Upstate Cell Signaling Solutions. ABL1 and T315I ABL1 catalyze the phosphorylation of p28. The phosphorylated p28 is detected by Homogeneous Time Resolved Fluorescence (HTRF). IC50s of compounds were measured for each kinase in the reactions that contain: 1-2 nM ABL1 or T315I ABL1, 500 nM peptide, 35 μM ATP for ABL1 and 10 μM ATP for T315I ABL1, 2.0% DMSO in assay buffer containing 50 mM Tris, pH 7.8, 100 mM NaCl, 10 mM MgCl2, 5 mM DTT, 0.6 mg/mL BSA. Reactions proceed at room temperature for one and half hour and were stopped by adding, 20 μL additional 50 mM NaCl, 0.4 mg/mL BSA, 45 mM EDTA, 200 nM SA-APC, 4 nM Eu—Py20 in assay buffer. The plates were incubated at room temperature for 40 min and HTRF was then measured on a plate reader.

ABL1 kinase (wild-type) = molecular target: T3, ABL1 kinase (wild-type) (Homo sapiens, UniProt P00519); assay: ABL1 HTRF assay (wild-type); format: biochemical; details: 35 μM ATP; read-out: EXAMPLE G WT Abl IC50
T3 construct: The catalytic domains of ABL1 kinases (residues 27 to the C-termini) were N-terminal His tagged; His tag (N); purchased Upstate Cell Signaling Solutions; host or cells: insect cells (baculovirus)
Experimental: as §2

[3] = molecular target: T4, human JAK3 (a.a. 781-1124) (Homo sapiens, UniProt P52333); assay: In vitro JAK kinase assay (HTRF), JAK3; format: biochemical; details: JAK3, 3 μM ATP; read-out: EXAMPLE A JAK2-JAK3 HTRF-2 IC50
T4 construct: JAK3 (a.a. 781-1124); His tag (N); made in house; host or cells: insect cells (baculovirus)
T4 sequence (P52333 781-1124): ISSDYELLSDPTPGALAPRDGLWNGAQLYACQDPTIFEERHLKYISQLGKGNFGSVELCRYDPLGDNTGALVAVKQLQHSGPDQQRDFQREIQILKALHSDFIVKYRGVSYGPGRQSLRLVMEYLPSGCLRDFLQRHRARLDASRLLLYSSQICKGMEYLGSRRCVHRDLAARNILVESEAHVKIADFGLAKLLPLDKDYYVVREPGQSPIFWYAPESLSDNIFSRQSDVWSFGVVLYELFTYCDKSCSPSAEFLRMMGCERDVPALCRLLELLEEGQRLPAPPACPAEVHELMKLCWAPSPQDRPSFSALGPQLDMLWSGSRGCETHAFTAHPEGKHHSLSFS
In short: as §1

[4] = molecular target: T5, human JAK2 (a.a. 828-1132) (Homo sapiens, UniProt O60674); assay: In vitro JAK kinase assay (HTRF), JAK2; format: biochemical; details: JAK2, 30 μM ATP; read-out: EXAMPLE A HTS-JAK2 HTRF-2 IC50
T5 construct: JAK2 (a.a. 828-1132); His tag (N); made in house; host or cells: insect cells (baculovirus)
T5 sequence (O60674 828-1132): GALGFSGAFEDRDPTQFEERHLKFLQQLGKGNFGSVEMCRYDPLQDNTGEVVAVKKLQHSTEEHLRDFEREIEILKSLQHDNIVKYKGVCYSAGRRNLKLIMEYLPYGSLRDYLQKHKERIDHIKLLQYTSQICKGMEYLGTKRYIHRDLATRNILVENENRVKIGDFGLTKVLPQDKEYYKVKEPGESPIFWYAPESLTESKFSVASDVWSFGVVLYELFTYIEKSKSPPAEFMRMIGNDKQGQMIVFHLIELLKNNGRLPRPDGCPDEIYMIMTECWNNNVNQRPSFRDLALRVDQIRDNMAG
In short: as §1

[5] = 72 hours, cell viability, read-out: EXAMPLE F JAK2-TF1-BCRABL1 IC50
[6] = TF1_BCRABL cells, read-out: EXAMPLE H TF1_BCRABL IC50

Structure (SMILES) | IC50 [1] | GI50 (TF1-BCRABL1 cells; [5]) | GI50 (TF1-BCRABL1 cells; [6]) | IC50 [2] | IC50 (T315I ABL1) | IC50 (ABL1 kinase (wild-type)) | IC50 [3] | IC50 [4]
O=C(Nc1cccc(C(F)(F)F)c1)c1ccc(Cl)c(-c2ccc3c(c2)[nH]c2ncncc23)c1 [Example 58, 4-chloro-3-(9H-pyrimido-[4,5-b]indol-7-yl)-N-[3-(trifluoromethyl)phenyl]-benzamide] | 0.5 to 1 µM | ≤ 0.5 µM | < 0.18 µM | ≤ 0.5 µM | < 0.19 µM | < 0.2 µM | ≤ 0.5 µM | ≤ 0.5 µM
Cc1ccc(NC(=O)c2cccc(C(F)(F)F)c2)cc1-c1ccc2[nH]c3ncncc3c2c1 [Example 40, N-[4-Methyl-3-(9H-pyrimido[4,5-b]indol-6-yl)phenyl]-3-(trifluoromethyl)benzamide] | ≤ 0.5 µM | ≤ 0.5 µM | < 0.18 µM | ≤ 0.5 µM | < 0.19 µM | < 0.2 µM | 0.5 to 1 µM | ≤ 0.5 µM
Cc1ccc(C(=O)Nc2cncc(C(F)(F)F)c2)cc1-c1ccc2c(c1)[nH]c1ncncc12 [Example 66, 4-Methyl-3-(9H-pyrimido[4,5-b]indol-7-yl)-N-[5-(trifluoromethyl)pyridin-3-yl]-benzamide] | 0.5 to 1 µM | ≤ 0.5 µM | < 0.18 µM | ≤ 0.5 µM | < 0.19 µM | < 0.2 µM | ≤ 0.5 µM | ≤ 0.5 µM
Cc1ccc(C(=O)N[C@@H](C)c2ccccc2)cc1-c1ccc2c(c1)[nH]c1ncncc12 [Example 64, 4-methyl-N-[(1S)-1-phenylethyl]-3-(9H-pyrimido[4,5-b]indol-7-yl)benzamide] | > 1 µM | 0.5 to 1 µM | – | > 1 µM | – | – | ≤ 0.5 µM | > 1 µM
Cc1cccc(NC(=O)c2ccc(C)c(-c3ccc4c(c3)[nH]c3ncncc34)c2)c1 [Example 53, 4-methyl-N-(3-methyl-phenyl)-3-(9H-pyrimido-[4,5-b]indol-7-yl)benzamide] | 0.5 to 1 µM | ≤ 0.5 µM | – | ≤ 0.5 µM | – | – | ≤ 0.5 µM | ≤ 0.5 µM
O=C(Nc1ccc(F)c(-c2ccc3c(c2)[nH]c2ncncc23)c1)c1cccc(C(F)(F)F)c1 [Example 13, N-[4-fluoro-3-(9H-pyrimido-[4,5-b]indol-7-yl)phenyl]-3-(trifluoromethyl)benzamide] | ≤ 0.5 µM | ≤ 0.5 µM | – | ≤ 0.5 µM | – | – | ≤ 0.5 µM | ≤ 0.5 µM
Cc1ccc(NC(=O)c2ccccc2C(F)(F)F)cc1-c1ccc2c(c1)[nH]c1ncncc12 [Example 12, N-[4-methyl-3-(9H-pyrimido-[4,5-b]indol-7-yl)phenyl]-2-(trifluoromethyl)benzamide] | > 1 µM | 0.5 to 1 µM | – | ≤ 0.5 µM | – | – | ≤ 0.5 µM | > 1 µM
Cc1ccc(NC(=O)c2cc(N3CCN(C)CC3)cc(C(F)(F)F)c2)cc1-c1ccc2c(c1)[nH]c1ncncc12 [Example 26, 3-(4-Methylpiperazin-1-yl)-N-[4-methyl-3-(9H-pyrimido[4,5-b]indol-7-yl)phenyl]-5-(trifluoromethyl)benzamide bis(trifluoroacetate)] | – | ≤ 0.5 µM | < 0.18 µM | ≤ 0.5 µM | < 0.19 µM | < 0.2 µM | ≤ 0.5 µM | ≤ 0.5 µM
Cc1ccc(C(=O)Nc2cccc(C(F)(F)F)c2)cc1-c1ccc2c(c1)[nH]c1ncncc12 [Example 52, 4-methyl-3-(9H-pyrimido-[4,5-b]indol-7-yl)-N-[3-(trifluoromethyl)phenyl]benzamide] | 0.5 to 1 µM | ≤ 0.5 µM | < 0.18 µM | ≤ 0.5 µM | < 0.19 µM | < 0.2 µM | ≤ 0.5 µM | ≤ 0.5 µM
Cc1ccc(C(=O)Nc2cccc(S(F)(F)(F)(F)F)c2)cc1-c1ccc2c(c1)[nH]c1ncncc12 [Example 65, 4-methyl-N-[3-(pentafluoro-λ(6)-sulfanyl)phenyl]-3-(9H-pyrimido[4,5-b]indol-7-yl)-benzamide] | 0.5 to 1 µM | ≤ 0.5 µM | – | ≤ 0.5 µM | – | – | ≤ 0.5 µM | ≤ 0.5 µM
Cc1ccc(NC(=O)c2cccc(F)c2)cc1-c1ccc2[nH]c3ncncc3c2c1 [Example 44, 3-fluoro-N-[4-methyl-3-(9H-pyrimido[4,5-b]indol-6-yl)-phenyl]benzamide] | > 1 µM | 0.5 to 1 µM | – | ≤ 0.5 µM | – | – | ≤ 0.5 µM | > 1 µM
N#Cc1ccc(C(=O)Nc2cccc(C(F)(F)F)c2)cc1-c1ccc2c(c1)[nH]c1ncncc12 [Example 51, 4-Cyano-3-(9H-pyrimido[4,5-b]indol-7-yl)-N-[3-(trifluoromethyl)phenyl]-benzamide] | > 1 µM | ≤ 0.5 µM | – | ≤ 0.5 µM | – | – | > 1 µM | ≤ 0.5 µM
Cc1cn(-c2cc(C(=O)Nc3ccc(C)c(-c4ccc5c(c4)[nH]c4ncncc45)c3)cc(C(F)(F)F)c2)cn1 [Example 2, 3-(4-Methyl-1H-imidazol-1-yl)-N-[4-methyl-3-(9H-pyrimido[4,5-b]indol-7-yl)-phenyl]-5-(trifluoromethyl)benzamide bis(trifluoroacetate)] | 0.5 to 1 µM | ≤ 0.5 µM | – | ≤ 0.5 µM | – | – | ≤ 0.5 µM | ≤ 0.5 µM
Cc1ccc(NC(=O)c2cc(N3CCNCC3)cc(C(F)(F)F)c2)cc1-c1ccc2c(c1)[nH]c1ncncc12 [Example 28, N-[4-methyl-3-(9H-pyrimido-[4,5-b]indol-7-yl)phenyl]-3-piperazin-1-yl-5-(trifluoro-methyl)benzamide] | 0.5 to 1 µM | ≤ 0.5 µM | – | ≤ 0.5 µM | – | – | ≤ 0.5 µM | ≤ 0.5 µM
Cc1ccc(NC(=O)c2cccc(S(F)(F)(F)(F)F)c2)cc1-c1ccc2c(c1)[nH]c1ncncc12 [Example 16, N-[4-methyl-3-(9H-pyrimido-[4,5-b]indol-7-yl)phenyl]-3-(pentafluoro-λ(6)-sulfanyl)-benzamide] | 0.5 to 1 µM | ≤ 0.5 µM | – | ≤ 0.5 µM | – | – | ≤ 0.5 µM | ≤ 0.5 µM
Cc1ccc(NC(=O)c2cc(C(F)(F)F)ccc2C(F)(F)F)cc1-c1ccc2c(c1)[nH]c1ncncc12 [Example 7, N-[4-methyl-3-(9H-pyrimido[4,5-b]indol-7-yl)phenyl]-2,5-bis(trifluoromethyl)benzamide] | > 1 µM | 0.5 to 1 µM | – | ≤ 0.5 µM | – | – | ≤ 0.5 µM | > 1 µM
